# Laboratory results: paper PMC8162404, “Proteomimetic surface fragments distinguish targets by function” (Chemical Science, 2020)
# Where two headings read alike, the source gives them in different places.
# Columns and labels:
# Experiment in all cases: Pull-down assay with immobilized protein and LSM libraries
# Gal-1 = target: T1, Gal-1 (Homo sapiens, UniProt P09382); assay type: binding; conditions: 1:1 binding assumed, read-out: Surface mapping KD (apparent)
# T1 construct: made in house; host or cells: E. coli BL21(DE3)
# Procedure, shortened: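 His-tagged protein immobilized on Co-NTA resin (64 µM) in 20 mM HEPES pH 7.4, 150 mM NaCl, equilibrated 30 min at room temperature with foldamer LSM sublibraries at equimolar total concentration. Unbound fractions quantified by HPLC-MS versus protein-free resin control; apparent KD assumes 1:1 binding.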
# S100A4 = target: T2, S100A4 (Homo sapiens, UniProt P26447); assay type: binding; conditions: 1:1 binding assumed, read-out: Surface mapping KD (apparent)
# T2 construct: made in house; host or cells: Escherichia coli BL21(DE3)
# Procedure, shortened: (§1)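 Buffers were HEPES pH 7.4 with 150 mM NaCl, plus 1 mM TCEP and 1 mM CaCl2 (50 mM HEPES) for S100A4 and S100B, 1 mM TCEP for Gal-1, and no additive for RecQ-WH. Immobilized protein at 64 µM was equilibrated 30 min with the LSM sublibrary, and unbound probes were measured by LC-MS.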
# S100B = target: T3, S100B (Homo sapiens, UniProt P04271); assay type: binding; conditions: 1:1 binding assumed, read-out: Surface mapping KD (apparent)
# T3 construct: made in house; host or cells: Escherichia coli BL21(DE3)
# T3 sequence (P04271 1-92): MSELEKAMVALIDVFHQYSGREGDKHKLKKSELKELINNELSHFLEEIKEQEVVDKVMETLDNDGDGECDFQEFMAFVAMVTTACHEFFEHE
# Procedure, shortened: as §1
# CaM = target: T4, CaM (Bos taurus, UniProt P62157); assay type: binding, bovine
# T4 construct: made in house; host or cells: E. coli BL21 (DE3)
# Procedure, shortened: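 His-tagged protein immobilized on Co-NTA resin, equilibrated 30 min at room temperature with LSM sublibraries (64 members, […]), equimolar protein to total probe. CaM buffer: 20 mM HEPES pH 7.4, 150 mM NaCl, 5 mM CaCl2. Bound fractions from HPLC-MS loss of unbound probe versus protein-free resin control; Kd derived.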
# [1] = H12 library, 1:2 stoichiometry assumed, read-out: Surface mapping KD (apparent)
# [2] = H14 library, 1:2 stoichiometry assumed, read-out: Surface mapping KD (apparent)
# T1 sequence (P09382 whole entry): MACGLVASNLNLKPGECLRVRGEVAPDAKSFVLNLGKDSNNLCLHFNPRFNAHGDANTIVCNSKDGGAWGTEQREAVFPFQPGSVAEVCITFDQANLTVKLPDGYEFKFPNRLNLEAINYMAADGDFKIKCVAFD
# T2 sequence (P26447 whole entry): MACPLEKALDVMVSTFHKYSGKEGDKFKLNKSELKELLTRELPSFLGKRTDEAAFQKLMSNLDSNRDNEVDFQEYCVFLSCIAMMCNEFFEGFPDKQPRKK
Kd (Gal-1; H12 library),Kd (S100A4; H12 library),Kd (S100B; H12 library),Kd (CaM; [1]),SMILES,also measured
436 µM,497 µM,,,CC(C)[C@@H](CC(=O)N[C@H]1CCC[C@@H]1C(=O)N[C@H]1CCC[C@@H]1C(=O)N[C@@H](CCC(N)=O)CC(=O)N[C@H]1CCC[C@@H]1C(=O)N[C@H]1CCC[C@@H]1C(N)=O)NC(=O)[C@H]1CCC[C@@H]1NC(=O)[C@H]1CCC[C@@H]1N [H12 VQ],
,98 µM,20 µM,42 µM,CSCC[C@@H](CC(=O)N[C@H]1CCC[C@@H]1C(=O)N[C@H]1CCC[C@@H]1C(N)=O)NC(=O)[C@H]1CCC[C@@H]1NC(=O)[C@H]1CCC[C@@H]1NC(=O)C[C@H](Cc1c[nH]c2ccccc12)NC(=O)[C@H]1CCC[C@@H]1NC(=O)[C@H]1CCC[C@@H]1N [H12 WM],
,183 µM,38 µM,83 µM,CC(C)[C@@H](CC(=O)N[C@H]1CCC[C@@H]1C(=O)N[C@H]1CCC[C@@H]1C(N)=O)NC(=O)[C@H]1CCC[C@@H]1NC(=O)[C@H]1CCC[C@@H]1NC(=O)C[C@H](Cc1c[nH]c2ccccc12)NC(=O)[C@H]1CCC[C@@H]1NC(=O)[C@H]1CCC[C@@H]1N [H12 WV],
,153 µM,28 µM,30 µM,NC(=O)[C@H]1CCC[C@@H]1NC(=O)[C@H]1CCC[C@@H]1NC(=O)C[C@H](Cc1ccc(O)cc1)NC(=O)[C@H]1CCC[C@@H]1NC(=O)[C@H]1CCC[C@@H]1NC(=O)C[C@H](Cc1c[nH]c2ccccc12)NC(=O)[C@H]1CCC[C@@H]1NC(=O)[C@H]1CCC[C@@H]1N [H12 WY],
,239 µM,36 µM,30 µM,NC(=O)[C@H]1CCC[C@@H]1NC(=O)[C@H]1CCC[C@@H]1NC(=O)C[C@H](Cc1ccccc1)NC(=O)[C@H]1CCC[C@@H]1NC(=O)[C@H]1CCC[C@@H]1NC(=O)C[C@H](Cc1ccc(O)cc1)NC(=O)[C@H]1CCC[C@@H]1NC(=O)[C@H]1CCC[C@@H]1N [H12 YF],
319 µM,283 µM,64 µM,,CC[C@H](C)[C@@H](CC(=O)N[C@H]1CCC[C@@H]1C(=O)N[C@H]1CCC[C@@H]1C(N)=O)NC(=O)[C@H]1CCC[C@@H]1NC(=O)[C@H]1CCC[C@@H]1NC(=O)C[C@H](Cc1ccc(O)cc1)NC(=O)[C@H]1CCC[C@@H]1NC(=O)[C@H]1CCC[C@@H]1N [H12 YI],
402 µM,180 µM,81 µM,,CC(C)C[C@@H](CC(=O)N[C@H]1CCC[C@@H]1C(=O)N[C@H]1CCC[C@@H]1C(N)=O)NC(=O)[C@H]1CCC[C@@H]1NC(=O)[C@H]1CCC[C@@H]1NC(=O)C[C@H](Cc1ccc(O)cc1)NC(=O)[C@H]1CCC[C@@H]1NC(=O)[C@H]1CCC[C@@H]1N [H12 YL],
,153 µM,28 µM,30 µM,NC(=O)[C@H]1CCC[C@@H]1NC(=O)[C@H]1CCC[C@@H]1NC(=O)C[C@H](Cc1c[nH]c2ccccc12)NC(=O)[C@H]1CCC[C@@H]1NC(=O)[C@H]1CCC[C@@H]1NC(=O)C[C@H](Cc1ccc(O)cc1)NC(=O)[C@H]1CCC[C@@H]1NC(=O)[C@H]1CCC[C@@H]1N [H12 YW],

# The next lines start with the compound.
SMILES,Kd (Gal-1; H12 library),Kd (S100A4; H12 library),Kd (S100B; H12 library),Kd (CaM; [1]),also measured
CC(C)C[C@@H](CC(=O)N[C@H]1CCC[C@@H]1C(=O)N[C@H]1CCC[C@@H]1C(N)=O)NC(=O)[C@H]1CCC[C@@H]1NC(=O)[C@H]1CCC[C@@H]1NC(=O)C[C@H](CC(=O)O)NC(=O)[C@H]1CCC[C@@H]1NC(=O)[C@H]1CCC[C@@H]1N [H12 DL],249 µM,449 µM,,,
NC(=O)[C@H]1CCC[C@@H]1NC(=O)[C@H]1CCC[C@@H]1NC(=O)C[C@H](Cc1ccccc1)NC(=O)[C@H]1CCC[C@@H]1NC(=O)[C@H]1CCC[C@@H]1NC(=O)C[C@H](Cc1ccccc1)NC(=O)[C@H]1CCC[C@@H]1NC(=O)[C@H]1CCC[C@@H]1N [H12 FF],130 µM,125 µM,14 µM,21 µM,
CC[C@H](C)[C@@H](CC(=O)N[C@H]1CCC[C@@H]1C(=O)N[C@H]1CCC[C@@H]1C(N)=O)NC(=O)[C@H]1CCC[C@@H]1NC(=O)[C@H]1CCC[C@@H]1NC(=O)C[C@H](Cc1ccccc1)NC(=O)[C@H]1CCC[C@@H]1NC(=O)[C@H]1CCC[C@@H]1N [H12 FI],167 µM,126 µM,13 µM,15 µM,
CC(C)C[C@@H](CC(=O)N[C@H]1CCC[C@@H]1C(=O)N[C@H]1CCC[C@@H]1C(N)=O)NC(=O)[C@H]1CCC[C@@H]1NC(=O)[C@H]1CCC[C@@H]1NC(=O)C[C@H](Cc1ccccc1)NC(=O)[C@H]1CCC[C@@H]1NC(=O)[C@H]1CCC[C@@H]1N [H12 FL],114 µM,83 µM,14 µM,205 µM,
CSCC[C@@H](CC(=O)N[C@H]1CCC[C@@H]1C(=O)N[C@H]1CCC[C@@H]1C(N)=O)NC(=O)[C@H]1CCC[C@@H]1NC(=O)[C@H]1CCC[C@@H]1NC(=O)C[C@H](Cc1ccccc1)NC(=O)[C@H]1CCC[C@@H]1NC(=O)[C@H]1CCC[C@@H]1N [H12 FM],,197 µM,39 µM,,Kd (CaM): 42 µM
CC(C)[C@@H](CC(=O)N[C@H]1CCC[C@@H]1C(=O)N[C@H]1CCC[C@@H]1C(N)=O)NC(=O)[C@H]1CCC[C@@H]1NC(=O)[C@H]1CCC[C@@H]1NC(=O)C[C@H](Cc1ccccc1)NC(=O)[C@H]1CCC[C@@H]1NC(=O)[C@H]1CCC[C@@H]1N [H12 FV],170 µM,207 µM,46 µM,157 µM,
NC(=O)[C@H]1CCC[C@@H]1NC(=O)[C@H]1CCC[C@@H]1NC(=O)C[C@H](Cc1ccc(O)cc1)NC(=O)[C@H]1CCC[C@@H]1NC(=O)[C@H]1CCC[C@@H]1NC(=O)C[C@H](Cc1ccccc1)NC(=O)[C@H]1CCC[C@@H]1NC(=O)[C@H]1CCC[C@@H]1N [H12 FY],,192 µM,59 µM,,
CSCC[C@@H](CC(=O)N[C@H]1CCC[C@@H]1C(=O)N[C@H]1CCC[C@@H]1C(=O)N[C@H](CC(=O)N[C@H]1CCC[C@@H]1C(=O)N[C@H]1CCC[C@@H]1C(N)=O)Cc1ccccc1)NC(=O)[C@H]1CCC[C@@H]1NC(=O)[C@H]1CCC[C@@H]1N [H12 MF],,303 µM,32 µM,74 µM,
CSCC[C@@H](CC(=O)N[C@H]1CCC[C@@H]1C(=O)N[C@H]1CCC[C@@H]1C(=O)N[C@H](CC(=O)N[C@H]1CCC[C@@H]1C(=O)N[C@H]1CCC[C@@H]1C(N)=O)CC(C)C)NC(=O)[C@H]1CCC[C@@H]1NC(=O)[C@H]1CCC[C@@H]1N [H12 ML],,245 µM,81 µM,98 µM,
CSCC[C@@H](CC(=O)N[C@H]1CCC[C@@H]1C(=O)N[C@H]1CCC[C@@H]1C(=O)N[C@H](CC(=O)N[C@H]1CCC[C@@H]1C(=O)N[C@H]1CCC[C@@H]1C(N)=O)Cc1c[nH]c2ccccc12)NC(=O)[C@H]1CCC[C@@H]1NC(=O)[C@H]1CCC[C@@H]1N [H12 MW],,170 µM,26 µM,42 µM,
N=C(N)NCCC[C@@H](CC(=O)N[C@H]1CCC[C@@H]1C(=O)N[C@H]1CCC[C@@H]1C(N)=O)NC(=O)[C@H]1CCC[C@@H]1NC(=O)[C@H]1CCC[C@@H]1NC(=O)C[C@H](CC(N)=O)NC(=O)[C@H]1CCC[C@@H]1NC(=O)[C@H]1CCC[C@@H]1N [H12 NR],,245 µM,106 µM,,
NC(=O)C[C@@H](CC(=O)N[C@H]1CCC[C@@H]1C(=O)N[C@H]1CCC[C@@H]1C(=O)N[C@@H](CO)CC(=O)N[C@H]1CCC[C@@H]1C(=O)N[C@H]1CCC[C@@H]1C(N)=O)NC(=O)[C@H]1CCC[C@@H]1NC(=O)[C@H]1CCC[C@@H]1N [H12 NS],,230 µM,,99 µM,
CC(C)[C@@H](CC(=O)N[C@H]1CCC[C@@H]1C(=O)N[C@H]1CCC[C@@H]1C(N)=O)NC(=O)[C@H]1CCC[C@@H]1NC(=O)[C@H]1CCC[C@@H]1NC(=O)C[C@H](CCCNC(=N)N)NC(=O)[C@H]1CCC[C@@H]1NC(=O)[C@H]1CCC[C@@H]1N [H12 RV],226 µM,422 µM,133 µM,,
C[C@@H](CC(=O)N[C@H]1CCCC[C@@H]1C(N)=O)NC(=O)[C@H]1CCCC[C@@H]1NC(=O)[C@H]1CCCC[C@@H]1NC(=O)C[C@H](C)NC(=O)[C@H]1CCCC[C@@H]1N [H14 AA],,,,,Kd (Gal-1; H14 library): 326 µM; Kd (S100A4; H14 library): 205 µM; Kd (CaM; [2]): 402 µM
NC(=O)C[C@@H](CC(=O)N[C@H]1CCCC[C@@H]1C(N)=O)NC(=O)[C@H]1CCCC[C@@H]1NC(=O)[C@H]1CCCC[C@@H]1NC(=O)C[C@H](Cc1ccccc1)NC(=O)[C@H]1CCCC[C@@H]1N [H14 FN],,,,,Kd (S100A4; H14 library): 337 µM; Kd (CaM; [2]): 90 µM
CC[C@H](C)[C@@H](CC(=O)N[C@H]1CCCC[C@@H]1C(N)=O)NC(=O)[C@H]1CCCC[C@@H]1NC(=O)[C@H]1CCCC[C@@H]1NC(=O)C[C@H](CCCCN)NC(=O)[C@H]1CCCC[C@@H]1N [H14 KI],,,,,Kd (S100B; H14 library): 80 µM; Kd (S100A4; H14 library): 85 µM; Kd (CaM; [2]): 22 µM
CC(C)C[C@@H](CC(=O)N[C@H]1CCCC[C@@H]1C(N)=O)NC(=O)[C@H]1CCCC[C@@H]1NC(=O)[C@H]1CCCC[C@@H]1NC(=O)C[C@H](CCCCN)NC(=O)[C@H]1CCCC[C@@H]1N [H14 KL],,,,,Kd (S100B; H14 library): 80 µM; Kd (S100A4; H14 library): 85 µM; Kd (CaM; [2]): 22 µM
CC(C)C[C@@H](CC(=O)N[C@H]1CCCC[C@@H]1C(=O)N[C@H]1CCCC[C@@H]1C(=O)N[C@@H](CCC(=O)O)CC(=O)N[C@H]1CCCC[C@@H]1C(N)=O)NC(=O)[C@H]1CCCC[C@@H]1N [H14 LE],,,,,Kd (Gal-1; H14 library): 463 µM; Kd (S100A4; H14 library): 427 µM
